Broadly, the Emax is the size of the effect at its maximum, as opposed to the concentration needed. Usually EC50 stands for the concentration at which the effect is half-maximal. Higher therefore signals lower potency in that assay.

A value given as a limit tells only on which side of the number the result lay.

Assay [1] has as its target T1, F508delCFTR (Homo sapiens, UniProt P13569, DEL508-508).
T1 construct: expressed in transfected cells; host or cells: CFBE41o- human lung-derived epithelial cells (CFBE41o-F508delCFTR-HRP), doxycycline-inducible
The assay is described as follows: Cell Surface Expression-Horse Radish Peroxidase (CSE-HRP) assay, test compound without co-corrector.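 As to Emax: percent of on-plate 2 µM positive control corrector response over DMSO.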 The class given is cell-based. To be noted: for Emax: maximum at any tested concentration, normalized to positive control, without co-corrector; for EC50: test compound without co-corrector. In short, it runs like this: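 CFBE41o- cells expressing F508delCFTR with HRP in the fourth exofacial loop, induced with 0.5 μg/mL doxycycline for 72 h at 37° C, then exposed to compound alone for 18-24 h at 33° C, 8-point 3-fold series from 20 μM. Surface HRP read by luminol luminescence, normalized to positive corrector control versus DMSO; EC50 from variable-slope sigmoidal fit of three replicate plates.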

For assay [2], the target named is T1, F508delCFTR. Briefly: Cell Surface Expression-Horse Radish Peroxidase (CSE-HRP) assay, test compound with co-corrector.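 As to Maximum % activity (with co-corrector): percent of 2 µM positive control corrector over DMSO; co-corrector is that same compound.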 Type of assay: cell-based. To be noted: with 2 μM co-corrector; for Maximum % activity (with co-corrector): maximum at any tested concentration, normalized to positive control. Put shortly:
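CFBE41o- cells expressing F508delCFTR with HRP in the fourth exofacial loop, induced with 0.5 μg/mL doxycycline for 72 h, then treated 18-24 h at 33° C. with compound (8 points, top 20 μM, 3-fold) plus 2 μM co-corrector. Surface HRP read by luminol luminescence; activity normalised to positive control, EC50 from variable-slope sigmoidal fit.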

T1 sequence (P13569 with tags, fused parts or gaps DEL508-508): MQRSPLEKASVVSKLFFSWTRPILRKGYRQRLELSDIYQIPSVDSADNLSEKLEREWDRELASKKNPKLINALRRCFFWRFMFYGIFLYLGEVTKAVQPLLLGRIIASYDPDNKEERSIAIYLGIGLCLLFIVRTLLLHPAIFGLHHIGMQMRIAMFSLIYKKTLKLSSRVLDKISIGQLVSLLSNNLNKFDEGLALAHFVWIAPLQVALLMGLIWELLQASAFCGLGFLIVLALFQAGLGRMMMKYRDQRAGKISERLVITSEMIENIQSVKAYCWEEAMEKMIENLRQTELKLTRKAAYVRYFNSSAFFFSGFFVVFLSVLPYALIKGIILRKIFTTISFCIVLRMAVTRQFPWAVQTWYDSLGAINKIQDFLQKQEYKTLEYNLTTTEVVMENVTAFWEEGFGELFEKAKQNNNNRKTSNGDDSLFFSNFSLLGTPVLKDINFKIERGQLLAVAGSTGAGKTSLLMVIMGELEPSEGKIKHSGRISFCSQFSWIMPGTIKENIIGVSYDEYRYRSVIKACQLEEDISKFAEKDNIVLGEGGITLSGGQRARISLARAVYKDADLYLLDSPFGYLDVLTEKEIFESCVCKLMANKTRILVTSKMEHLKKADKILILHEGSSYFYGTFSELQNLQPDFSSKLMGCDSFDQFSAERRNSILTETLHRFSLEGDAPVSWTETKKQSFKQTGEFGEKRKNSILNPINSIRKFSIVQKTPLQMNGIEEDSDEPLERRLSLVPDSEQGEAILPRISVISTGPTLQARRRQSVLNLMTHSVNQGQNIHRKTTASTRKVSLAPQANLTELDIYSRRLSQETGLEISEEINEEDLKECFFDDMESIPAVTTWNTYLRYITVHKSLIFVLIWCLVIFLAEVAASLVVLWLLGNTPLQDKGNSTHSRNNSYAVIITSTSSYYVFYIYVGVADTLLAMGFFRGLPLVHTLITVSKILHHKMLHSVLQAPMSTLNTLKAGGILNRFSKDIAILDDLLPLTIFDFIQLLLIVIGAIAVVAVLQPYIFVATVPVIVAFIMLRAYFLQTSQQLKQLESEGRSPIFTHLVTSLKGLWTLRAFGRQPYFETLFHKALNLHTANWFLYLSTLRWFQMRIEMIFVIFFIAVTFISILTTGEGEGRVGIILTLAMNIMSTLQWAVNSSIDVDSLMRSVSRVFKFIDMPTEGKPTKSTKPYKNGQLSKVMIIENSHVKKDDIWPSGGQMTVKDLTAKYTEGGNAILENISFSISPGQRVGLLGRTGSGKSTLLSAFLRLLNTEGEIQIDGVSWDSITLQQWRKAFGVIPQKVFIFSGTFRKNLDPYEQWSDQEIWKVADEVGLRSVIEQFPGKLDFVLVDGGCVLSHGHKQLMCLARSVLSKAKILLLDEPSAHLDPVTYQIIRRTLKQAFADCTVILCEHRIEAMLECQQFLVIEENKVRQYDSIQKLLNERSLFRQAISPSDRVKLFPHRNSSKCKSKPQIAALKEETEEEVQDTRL

On to `COc1ccc(C2CCC2)c2c1[C@H](C(=O)NS(=O)(=O)c1cccc3ncccc13)CC2` [Example I-103, (1R)-4-cyclobutyl-7-methoxy-N-(quinoline-5-sulfonyl)-2,3-dihydro-1H-indene-1-carboxamide], for which, in assay [1], the maximum response (Emax) is at least 150% and the EC50 was in the range of 3 to 10 µM. Moreover, in assay [2], the “Maximum % activity (with co-corrector)” value is “+++ (≥350)” and the EC50 was 3 to 10 µM.
For the compound `COc1ccc(C2CCC2)c2c1[C@@H](C(=O)NS(=O)(=O)c1cccc3ncccc13)CC2` [Example I-104, (1S)-4-cyclobutyl-7-methoxy-N-(quinoline-5-sulfonyl)-2,3-dihydro-1H-indene-1-carboxamide], in assay [1], the Emax is at least 150% and the half-maximal effective concentration (EC50) lay within 3 to 10 µM. Moreover, in assay [2], the “Maximum % activity (with co-corrector)” value was “+++ (≥350)” and the concentration for a half-maximal effect (EC50) was below 3 µM.
For `COc1ccc(Br)c2c1C(C(=O)NS(=O)(=O)c1cccc3c(O)cccc13)CC2` (stereo not drawn) [Example I-105, 4-bromo-N-(5-hydroxynaphthalene-1-sulfonyl)-7-methoxy-2,3-dihydro-1H-indene-1-carboxamide] the same measures were at least 150%, 3 to 10 µM, “+++ (≥350)” and below 3 µM.
For `COc1ccc(C)c2c1CC[C@H]2C(=O)NS(=O)(=O)c1cccc2ccccc12` [Example I-108, (1R)-4-methoxy-7-methyl-N-(naphthalene-1-sulfonyl)-2,3-dihydro-1H-indene-1-carboxamide] the same measures were at least 150%, 3 to 10 µM, “+++ (≥350)” and 3 to 10 µM.
For `COc1ccc(C)c2c1CC[C@@H]2C(=O)NS(=O)(=O)c1cccc2ccccc12` [Example I-109, (1S)-4-methoxy-7-methyl-N-(naphthalene-1-sulfonyl)-2,3-dihydro-1H-indene-1-carboxamide] the same measures were at least 150%, 3 to 10 µM, “+++ (≥350)” and below 3 µM.
In assay [1], `COc1ncc(Br)c2c1C(C(=O)NS(=O)(=O)c1cccc3ccccc13)CC2` (stereo not drawn) [Example I-110, 4-bromo-1-methoxy-N-(naphthalene-1-sulfonyl)-6,7-dihydro-5H-cyclopenta[c]pyridine-7-carboxamide] yielded an Emax of at least 150% and a 50% effective concentration (EC50) of 3 to 10 µM. In assay [2], the “Maximum % activity (with co-corrector)” value was “+++ (≥350)” and the concentration giving a half-maximal response (EC50) is 3 to 10 µM.
In assay [1], `COc1ncc(C2CCC2)c2c1C(C(=O)NS(=O)(=O)c1cccc3ccccc13)CC2` (stereo not drawn) [Example I-111, 4-cyclobutyl-1-methoxy-N-(naphthalene-1-sulfonyl)-6,7-dihydro-5H-cyclopenta[c]pyridine-7-carboxamide] had an Emax of at least 150% and an EC50 of 3 to 10 µM. Besides, in assay [2], the “Maximum % activity (with co-corrector)” value was “+++ (≥350)” and the concentration giving a half-maximal response (EC50) was in the range of 3 to 10 µM.
In assay [1], `COc1ncc(Cl)c2c1C(C(=O)NS(=O)(=O)c1cccc3ccccc13)CC2` (stereo not drawn) [Example I-112, 4-chloro-1-methoxy-N-(naphthalene-1-sulfonyl)-6,7-dihydro-5H-cyclopenta[c]pyridine-7-carboxamide] displayed a maximal response (Emax) of at least 150% and an EC50 of 3 to 10 µM. In assay [2], the “Maximum % activity (with co-corrector)” value was “+++ (≥350)” and the concentration for a half-maximal effect (EC50) was in the range of 3 to 10 µM.
In assay [1], `COc1ncc(Br)c2c1C(C(=O)NS(=O)(=O)c1cccc3ccccc13)CCC2` (stereo not drawn) [Example I-113, 4-bromo-1-methoxy-N-(naphthalene-1-sulfonyl)-5,6,7,8-tetrahydroisoquinoline-8-carboxamide] came in with a maximal effect (Emax) of at least 150% and an EC50 of 3 to 10 µM. For the same compound, in assay [2], the “Maximum % activity (with co-corrector)” value is “+++ (≥350)” and the EC50 is below 3 µM.
For `COc1ccc(C2CCC2)c2c1C(C(=O)NS(=O)(=O)c1cccc3ncccc13)C2` (stereo not drawn) [Example I-114, 2-cyclobutyl-5-methoxy-N-(quinoline-5-sulfonyl)bicyclo[4.2.0]octa-1,3,5-triene-7-carboxamide] the same measures were at least 150%, below 3 µM, “+++ (≥350)” and below 3 µM.
Taken in the same sequence, the figures for `COc1ncc(Br)c2c1[C@@H](C(=O)NS(=O)(=O)c1cccc3ccccc13)CCC2` [Example I-115, (8S)-4-bromo-1-methoxy-N-(naphthalene-1-sulfonyl)-5,6,7,8-tetrahydroisoquinoline-8-carboxamide] were at least 150%, 3 to 10 µM, “+++ (≥350)” and below 3 µM.
Taken in the same sequence, the figures for `COc1ncc(Br)c2c1[C@H](C(=O)NS(=O)(=O)c1cccc3ccccc13)CCC2` [Example I-116, (8R)-4-bromo-1-methoxy-N-(naphthalene-1-sulfonyl)-5,6,7,8-tetrahydroisoquinoline-8-carboxamide] were at least 150%, below 3 µM, “+++ (≥350)” and below 3 µM.
In assay [1], `COc1ccc(C(F)(F)F)c2c1[C@@H](C(=O)NS(=O)(=O)c1cccc3nc(C)ccc13)CC2` [Example I-117, (1S)-7-methoxy-N-(2-methylquinoline-5-sulfonyl)-4-(trifluoromethyl)-2,3-dihydro-1H-indene-1-carboxamide] had an Emax of at least 150% and an EC50 of 3 to 10 µM. Moreover, in assay [2], the “Maximum % activity (with co-corrector)” value is on record as “+++ (≥350)” and the EC50 fell in the range of 3 to 10 µM.
In assay [1], `COc1ccc(C(F)(F)F)c2c1[C@H](C(=O)NS(=O)(=O)c1cccc3nc(C)ccc13)CC2` [Example I-118, (1R)-7-methoxy-N-(2-methylquinoline-5-sulfonyl)-4-(trifluoromethyl)-2,3-dihydro-1H-indene-1-carboxamide] displayed an Emax of at least 150% and an EC50 below 3 µM. Also, in assay [2], the “Maximum % activity (with co-corrector)” value is “+++ (≥350)” and the 50% effective concentration (EC50) was below 3 µM.
Regarding `COc1ccc(C2CCC2)c2c1C(C(=O)NS(=O)(=O)c1cccc3c1NCCC3)CC2` (stereo not drawn) [Example I-119, 4-cyclobutyl-7-methoxy-N-(1,2,3,4-tetrahydroquinoline-8-sulfonyl)-2,3-dihydro-1H-indene-1-carboxamide], in assay [1], the Emax is at least 150% and the EC50 was 3 to 10 µM. Moreover, in assay [2], the “Maximum % activity (with co-corrector)” value is “+++ (≥350)” and the EC50 was 3 to 10 µM.
`COc1ncc(C2CCC2)c2c1[C@H](C(=O)NS(=O)(=O)c1cccc3ccccc13)CCC2` [Example I-120, (8R)-4-cyclobutyl-1-methoxy-N-(naphthalene-1-sulfonyl)-5,6,7,8-tetrahydroisoquinoline-8-carboxamide]: in assay [1], the Emax is at least 150% and the concentration for a half-maximal effect (EC50) is below 3 µM. Further, in assay [2], the “Maximum % activity (with co-corrector)” value is on record as “+++ (≥350)” and the 50% effective concentration (EC50) was below 3 µM.
`COc1ncc(C2CCC2)c2c1[C@@H](C(=O)NS(=O)(=O)c1cccc3ccccc13)CCC2` [Example I-121, (8S)-4-cyclobutyl-1-methoxy-N-(naphthalene-1-sulfonyl)-5,6,7,8-tetrahydroisoquinoline-8-carboxamide]: in assay [1], the Emax is at least 150% and the EC50 fell in the range of 3 to 10 µM. For the same compound, in assay [2], the “Maximum % activity (with co-corrector)” value is “+++ (≥350)” and the concentration for a half-maximal effect (EC50) is 3 to 10 µM.
Turning to `COc1ccc(C2CCC2)c2c1[C@@H](C(=O)NS(=O)(=O)c1cccc3c1CCCN3)CC2` [Example I-122, (1S)-4-cyclobutyl-7-methoxy-N-(1,2,3,4-tetrahydroquinoline-5-sulfonyl)-2,3-dihydro-1H-indene-1-carboxamide], in assay [1], the maximum response (Emax) was at least 150% and the half-maximal effective concentration (EC50) is 3 to 10 µM. For the same compound, in assay [2], the “Maximum % activity (with co-corrector)” value is listed as “+++ (≥350)” and the EC50 was in the range of 3 to 10 µM.
As for `COc1ccc(C2CCC2)c2c1[C@@H](C(=O)NS(=O)(=O)c1cccc3ncn(C)c13)CC2` [Example I-123, (1S)-4-cyclobutyl-7-methoxy-N-(1-methyl-1H-benzimidazole-7-sulfonyl)-2,3-dihydro-1H-indene-1-carboxamide], in assay [1], the Emax was at least 150% and the half-maximal effective concentration (EC50) was in the range of 3 to 10 µM. For the same compound, in assay [2], the “Maximum % activity (with co-corrector)” value is given as “+++ (≥350)” and the EC50 was below 3 µM.
For `C=C(C)c1ccc(OC)c2c1CCC2C(=O)NS(=O)(=O)c1cccc2ccccc12` (stereo not drawn) [Example I-124, 7-methoxy-N-(naphthalene-1-sulfonyl)-4-(prop-1-en-2-yl)-2,3-dihydro-1H-indene-1-carboxamide] the same measures were at least 150%, below 3 µM, “+++ (≥350)” and below 3 µM.
For `COc1ccc(C(C)(C)O)c2c1C(C(=O)NS(=O)(=O)c1cccc3ccccc13)CC2` (stereo not drawn) [Example I-125, 4-(2-hydroxypropan-2-yl)-7-methoxy-N-(naphthalene-1-sulfonyl)-2,3-dihydro-1H-indene-1-carboxamide] the same measures were 50 to 150%, 3 to 10 µM, “+++ (≥350)” and 3 to 10 µM.

Values taken from patent US20180244611A1, “Modulators of the Cystic Fibrosis Transmembrane Conductance Regulator Protein and Methods of Use” (AbbVie S.à.r.l., priority 2017, published 2018).
